# Measured values from patent US20120029016A1, “Indoles Useful in the Treatment of Inflammation” (BIOLIPOX AB, priority 2008, published 2012).
# Assays:
# [1] = system: cysteinyl leukotrienes concentration in the peritoneal lavage; assay: Mouse peritoneal inflammation model (zymosan ip), cysteinyl leukotrienes in peritoneal lavage by EIA; assay type: in vivo, Male BALB/c mice; details: 0.5 h, 5 min before zymosan, lavage 30 min after zymosan, read-out: %-inhibition of cysteinyl leukotrienes concentration vs vehicle treated mice; for inhibition in vivo at 10 mg/kg: 10 mg/kg ip; for inhibition in vivo at 3 mg/kg: 3 mg/kg ip
# Protocol: The in vivo efficacy of leukotriene biosynthesis inhibitors was assed by using a model of peritoneal inflammation. Male BALB/c mice (weighing 20-25 grams) received an intraperitoneal injection (ip) of 0.5 ml zymosan dissolved in phosphate buffer saline (PBS) (pH 7.5, 1 mg/mL). 5 Minutes before the zymosan injection compounds (1-10 mg/kg) or vehicle were administered ip (10 mL/kg). 30 min after the zymosan injection the mice were anaesthetized and the peritoneal cavity was flushed with 4 mL PBS. The peritoneal lavage was centrifuged at 6000 rcf for 5 minutes and the cysteinyl leukotrienes concentration in the supernatant was determined by EIA. The cysteinyl leukotrienes concentration in the peritoneal lavage from compound treated mice was compared to vehicle treated mice and the % inhibition was calculated.
# [2] = target: T1, Recombinant human LTC4 synthase (Homo sapiens, UniProt Q16873); assay: In vitro assay Method B: LTC4 synthase, LTA4 to LTC4, HTRF detection; assay type: biochemical; details: total concentration of title compound 10 μM, read-out: % inh. of LTC4 synthase
# T1 construct: made in house; host or cells: Pichia pastoris ('Piccia pastoralis' [sic])
# T1 sequence (Q16873 1-150): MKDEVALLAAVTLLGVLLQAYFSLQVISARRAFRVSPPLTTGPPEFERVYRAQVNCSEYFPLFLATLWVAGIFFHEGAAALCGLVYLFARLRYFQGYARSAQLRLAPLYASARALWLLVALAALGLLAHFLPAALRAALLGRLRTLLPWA
# Protocol: In the assay, LTC4 synthase catalyses the reaction where the substrate LTA4 is converted to LTC4. Recombinant human LTC4 synthase is expressed in Piccia pastoralis and the purified enzyme is dissolved in 25 mM Tris-buffer pH 7.8 and stored at −20° C. The assay is performed in phosphate buffered saline (PBS) pH 7.4, supplemented with 5 mM glutathione (GSH). The assay is performed at rt in 384-well plates. Analysis of the formed LTC4 is performed using costume made homogenous time-resolved fluorescence (HTRF) detection (Cisbio).
# The following is added chronologically to each well: • 1. 50 μL assay buffer, PBS with 5 mM GSH. • 2. 0.5 μL inhibitor in DMSO. • 3. 2 μl LTC4 synthase in PBS. The total protein concentration in this solution is 0.025 mg/ml. Incubation of the plate at rt for 10 min. • 4. 1-1.5 μL LTA4 (final conc. 2.5 μM). Incubation of the plate at rt for 1 min. 10 μL of the incubation mixture is analysed using HTRF detection.
Structure (SMILES),inhibition at 10 µM [2] [%],also measured
"CC(C)Oc1ccc(Oc2ccc3c(c2)c(C(=O)O)c(CC(=O)O)n3-c2ccc(OCc3ccccc3C(F)(F)F)cc2)cc1 [Example 1:8, 2-Carboxymethyl-1-5-(4-isopropoxyphenoxy)-[4-(2-trifluoromethyl-benzyloxy)phenyl]indole-3-carboxylic acid]",98,inhibition in vivo at 10 mg/kg [1]: 96%
"CC(C)Oc1ccc(Oc2ccc3c(c2)c(C(=O)O)c(CC(=O)O)n3-c2ccc(OCc3cccc(Cl)c3)cc2)cc1 [1:7, 2-Carboxymethyl-1-[4-(3-chlorobenzyloxy)phenyl]-5-(4-isopropoxy-phenoxy)indole-3-carboxylic acid]",94,–
"CC(C)Oc1ccc(Oc2ccc3c(c2)c(C(=O)O)c(CC(=O)O)n3-c2ccc(OCc3ccc(Cl)nc3)cc2)cc1 [1:11, 2-Carboxymethyl-1-[4-(6-chloro-3-pyridinylmethoxy)phenyl]-5-(4-isopropoxyphenoxy)indole-3-carboxylic acid]",99,–
"CC(C)Oc1ccc(Oc2ccc3c(c2)c(C(=O)O)c(CC(=O)O)n3-c2ccc(OCc3ccc(Cl)c(Cl)c3)cc2)cc1 [1:4, 2-Carboxymethyl-1-[4-(3,4-dichlorobenzyloxy)phenyl]-5-(4-isopropoxyphenoxy)indole-3-carboxylic acid]",93,–
"O=C(O)Cc1c(C(=O)O)c2cc(Oc3ccc(OC(F)(F)F)cc3)ccc2n1-c1ccc(OC2CCCC2)cc1 [4:2, 2-Carboxymethyl-1-(4-cyclopentyloxyphenyl)-5-(4-trifluoromethoxyphenoxy)indole-3-carboxylic acid]",100,–
"CC(C)Oc1ccc(Oc2ccc3c(c2)c(C(=O)O)c(CC(=O)O)n3-c2ccc(OCc3ccccc3)cc2)cc1 [Example 1:1, 1-(4-Benzyloxyphenyl)-2-carboxymethyl-5-(4-isopropoxyphenoxy)indole-3-carboxylic acid]",99,inhibition in vivo at 1 mg/kg ([1]; 1 mg/kg ip): 78%; inhibition in vivo at 3 mg/kg [1]: 92%; inhibition in vivo at 10 mg/kg [1]: 100%
"O=C(O)Cc1c(C(=O)O)c2cc(Oc3ccc(OC(F)(F)F)cc3)ccc2n1-c1ccc(NCc2ccc(Cl)nc2)cc1 [Example 6:2, 2-Carboxymethyl-1-{4-[(6-chloro-3-pyridinylmethyl)amino]phenyl}-5-(4-trifluoromethoxyphenoxy)indole-3-carboxylic acid]",95,–
"O=C(O)Cc1c(C(=O)O)c2cc(Oc3ccc(OC(F)(F)F)cc3)ccc2n1-c1ccc(NCc2cccnc2)cc1 [6:1, 2-Carboxymethyl-1-[4-(3-pyridinylmethylamino)phenyl]-5-(4-trifluoromethoxyphenoxy)indole-3-carboxylic acid]",100,–
"CC(C)Oc1ccc(Oc2ccc3c(c2)c(C(=O)O)c(CC(=O)O)n3-c2ccc(Oc3ccc(Cl)cc3)cc2)cc1 [Example 3:3, 2-Carboxymethyl-1-[4-(4-chlorophenoxy)phenyl]-5-(4-isopropoxy-phenoxy)indole-3-carboxylic acid]",96,inhibition in vivo at 10 mg/kg [1]: 100%
"CC(C)Oc1ccc(Oc2ccc3c(c2)c(C(=O)O)c(CC(=O)O)n3-c2ccc(OCc3ccc(Cl)cc3)cc2)cc1 [1:6, 2-Carboxymethyl-1-[4-(4-chlorobenzyloxy)phenyl]-5-(4-isopropoxy-phenoxy)indole-3-carboxylic acid]",95,–
"CC(C)Oc1ccc(Oc2ccc3c(c2)c(C(=O)O)c(CC(=O)O)n3-c2ccc(Oc3cccc(Cl)c3)cc2)cc1 [3:2, 2-Carboxymethyl-1-[4-(3-chlorophenoxy)phenyl]-5-(4-isopropoxy-phenoxy)indole-3-carboxylic acid]",97,–
"O=C(O)Cc1c(C(=O)O)c2cc(Oc3ccc(OC(F)(F)F)cc3)ccc2n1-c1ccc(NCc2ccccc2)cc1 [6:9, 1-(4-benzylaminophenyl)-2-carboxymethyl-5-(4-trifluoromethoxy-phenoxy)indole-3-carboxylic acid]",100,–
"CCN(c1ccc(-n2c(CC(=O)O)c(C(=O)O)c3cc(Oc4ccc(OC(F)(F)F)cc4)ccc32)cc1)c1cccc(C)c1 [6:4, 2-Carboxymethyl-1-{4-[ethyl(m-tolyl)amino]phenyl}-5-(4-trifluoromethoxy-phenoxy)indole-3-carboxylic acid]",94,–
"O=C(O)Cc1c(C(=O)O)c2cc(Oc3ccc(OC(F)(F)F)cc3)ccc2n1-c1ccc(Nc2cccc3c2CCCC3)cc1 [6:8, 2-Carboxymethyl-1-[4-(5,6,7,8-tetrahydro-1-naphthylamino)phenyl]-5-(4-trifluoromethoxyphenoxy)indole-3-carboxylic acid]",97,–
"CCCCCCCCOc1ccc(-n2c(CC(=O)O)c(C(=O)O)c3cc(Oc4ccc(OC(C)C)cc4)ccc32)cc1 [Example 5:2, 2-Carboxymethyl-1-(4-octyloxyphenyl)-5-(4-isopropoxyphenoxy)indole-3-carboxylic acid]",97,inhibition in vivo at 3 mg/kg [1]: 94%
"CC(C)Oc1ccc(Oc2ccc3c(c2)c(C(=O)O)c(CC(=O)O)n3-c2ccc(Oc3ccccc3Cl)cc2)cc1 [3:4, 2-Carboxymethyl-1-[4-(2-chlorophenoxy)phenyl]-5-(4-isopropoxy-phenoxy)indole-3-carboxylic acid]",9,–
"O=C(O)Cc1c(C(=O)O)c2cc(Oc3ccc(OC(F)(F)F)cc3)ccc2n1-c1ccc(NC2CCCC2)cc1 [6:5, 2-Carboxymethyl-1-(4-cyclopentylaminophenyl)-5-(4-trifluoromethoxy-phenoxy)indole-3-carboxylic acid]",100,–
"CC(C)Oc1ccc(Oc2ccc3c(c2)c(C(=O)O)c(CC(=O)O)n3-c2ccc(OC3CCC(C)(C)CC3)cc2)cc1 [Example 5:1, 2-Carboxymethyl-1-[4-(4,4-dimethylcyclohexyloxy)phenyl]-5-(4-isopropoxyphenoxy)indole-3-carboxylic acid]",97,–
"Cc1ccc(COc2ccc(-n3c(CC(=O)O)c(C(=O)O)c4cc(Oc5ccc(OC(C)C)cc5)ccc43)cc2)cc1 [Example 1:2, 2-Carboxymethyl-5-(4-isopropoxyphenoxy)-1-(4-(4-methylbenzyloxy)phenyl)indole-3-carboxylic acid]",96,–
"CCN(c1ccccc1)c1ccc(-n2c(CC(=O)O)c(C(=O)O)c3cc(Oc4ccc(OC(F)(F)F)cc4)ccc32)cc1 [6:3, 2-Carboxymethyl-1-{4-[ethyl(phenyl)amino]phenyl}-5-(4-trifluoromethoxy-phenoxy)indole-3-carboxylic acid]",100,–
"CCCCCCCCNc1ccc(-n2c(CC(=O)O)c(C(=O)O)c3cc(Oc4ccc(OC(F)(F)F)cc4)ccc32)cc1 [6:7, 2-Carboxymethyl-1-(4-octylaminophenyl)-5-(4-trifluoromethoxyphenoxy)-indole-3-carboxylic acid]",98,–
"O=C(O)Cc1c(C(=O)O)c2cc(Oc3ccc(OC(F)(F)F)cc3)ccc2n1-c1ccc(NCC2CCCCC2)cc1 [6:6, 2-Carboxymethyl-1-(4-cyclohexylmethylaminophenyl)-5-(4-trifluoro-methoxyphenoxy)indole-3-carboxylic acid]",97,–
"O=C(O)Cc1c(C(=O)O)c2cc(Oc3ccc(OC4CCCC4)cc3)ccc2n1-c1ccc(OC2CCCC2)cc1 [4:3, 2-Carboxymethyl-5-(4-cyclopentyloxyphenoxy)-1-(4-cyclopentyloxyphenyl)indole-3-carboxylic acid]",97,–
"O=C(O)Cc1c(C(=O)O)c2cc(Oc3ccc(OC4CC4)cc3)ccc2n1-c1ccc(OC2CCCC2)cc1 [4:4, 2-Carboxymethyl-1-(4-cyclopentyloxyphenyl)-5-(4-cyclopropoxyphenoxy)-indole-3-carboxylic acid]",98,–
"CC(C)Oc1ccc(Oc2ccc3c(c2)c(C(=O)O)c(CC(=O)O)n3-c2ccc(OCc3ccccc3Cl)cc2)cc1 [1:3, 2-Carboxymethyl-1-[4-(2-chlorobenzyloxy)phenyl]-5-(4-isopropoxy-phenoxy)indole-3-carboxylic acid]",95,–
"CC(C)Oc1ccc(Oc2ccc3c(c2)c(C(=O)O)c(CC(=O)O)n3-c2ccc(OC3CC4CCC3C4)cc2)cc1 (centres unmarked) [5:3, 2-Carboxymethyl-5-(4-isopropoxyphenoxy)-1-[4-(2-norbomanyloxy)-phenyl]indole-3-carboxylic acid]",95,–
